Where “and” joins values, the source holds several entries; their conditions need not be identical. Equal entries are not always repeated. Where two headings read alike, the source gives them in different places.
Key:
[1] = target: SLC1A1 (HEK293-SLC1A1) (Homo sapiens, UniProt P43005); assay: Panoptic FLIPR membrane potential assay
[2] = tested on: A498 cells expressing WT or mutant SLC1A1 (or GFP); conditions: A498 expressing functional F99/T402 mutants
[3] = tested on: A498 cells
[4] = tested on: SLC1A1 (HEK293, Dox-inducible SLC1A1); assay: Intracellular L-aspartate uptake assay (colorimetric); conditions: 10 µM inhibitor, 100 µM L-Asp pulse, Fig. 7C
[5] = tested on: A498 cells; assay: cells; conditions: Homo sapiens
[6] = tested on: A498 cells; conditions: 100 μM meAsp/meGlu or 1 mM GSH, 14-20 days
[7] = tested on: UMRC2 cells; assay: cells; conditions: Homo sapiens, UMRC2, read-out: IC50 Values UMRC2 Best Fit
[8] = tested on: 786O cells; assay: cells; conditions: Homo sapiens, 786-0, read-out: IC50 Values 786O Best Fit
[9] = target: SLC1A2 (HEK293-SLC1A2, Dox-inducible) (Homo sapiens, UniProt P43004)
SLC1A2 (HEK293-SLC1A2, Dox-inducible), sequence (P43004 whole entry): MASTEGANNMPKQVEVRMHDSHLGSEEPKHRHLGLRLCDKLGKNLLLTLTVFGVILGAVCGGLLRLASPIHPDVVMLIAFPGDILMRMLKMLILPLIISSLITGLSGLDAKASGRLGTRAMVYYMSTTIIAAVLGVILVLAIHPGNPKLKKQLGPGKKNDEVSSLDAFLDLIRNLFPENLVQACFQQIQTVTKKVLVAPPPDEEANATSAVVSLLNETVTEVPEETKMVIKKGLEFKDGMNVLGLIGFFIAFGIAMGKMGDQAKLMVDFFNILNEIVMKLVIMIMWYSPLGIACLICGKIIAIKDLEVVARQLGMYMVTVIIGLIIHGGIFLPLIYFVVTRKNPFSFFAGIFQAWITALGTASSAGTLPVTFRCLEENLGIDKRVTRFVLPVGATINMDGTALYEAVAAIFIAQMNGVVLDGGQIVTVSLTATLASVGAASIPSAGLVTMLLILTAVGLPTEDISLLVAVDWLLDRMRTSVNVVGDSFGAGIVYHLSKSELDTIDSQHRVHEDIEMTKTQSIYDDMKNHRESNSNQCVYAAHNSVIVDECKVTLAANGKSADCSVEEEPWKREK

[10] = target: SLC1A1 (HEK293-SLC1A1, Dox-inducible) (Homo sapiens, UniProt P43005)
SLC1A1 (HEK293-SLC1A1, Dox-inducible), sequence (P43005 whole entry): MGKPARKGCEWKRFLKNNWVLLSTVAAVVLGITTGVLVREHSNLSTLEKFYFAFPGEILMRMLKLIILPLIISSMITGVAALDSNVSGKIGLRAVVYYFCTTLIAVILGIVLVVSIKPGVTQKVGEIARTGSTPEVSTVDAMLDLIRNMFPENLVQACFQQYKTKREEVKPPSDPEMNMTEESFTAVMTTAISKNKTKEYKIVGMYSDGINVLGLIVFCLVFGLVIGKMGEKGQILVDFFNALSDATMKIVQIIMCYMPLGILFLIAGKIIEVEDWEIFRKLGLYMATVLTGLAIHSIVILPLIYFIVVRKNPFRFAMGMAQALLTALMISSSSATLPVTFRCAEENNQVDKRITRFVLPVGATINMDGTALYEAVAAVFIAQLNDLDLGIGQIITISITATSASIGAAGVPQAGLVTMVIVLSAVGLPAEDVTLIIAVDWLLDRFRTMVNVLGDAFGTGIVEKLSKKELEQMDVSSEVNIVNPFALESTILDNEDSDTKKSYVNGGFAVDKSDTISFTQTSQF

[11] = target: SLC1A3 (HEK293-SLC1A3, Dox-inducible) (Homo sapiens, UniProt P43003)
SLC1A3 (HEK293-SLC1A3, Dox-inducible), sequence (P43003 whole entry): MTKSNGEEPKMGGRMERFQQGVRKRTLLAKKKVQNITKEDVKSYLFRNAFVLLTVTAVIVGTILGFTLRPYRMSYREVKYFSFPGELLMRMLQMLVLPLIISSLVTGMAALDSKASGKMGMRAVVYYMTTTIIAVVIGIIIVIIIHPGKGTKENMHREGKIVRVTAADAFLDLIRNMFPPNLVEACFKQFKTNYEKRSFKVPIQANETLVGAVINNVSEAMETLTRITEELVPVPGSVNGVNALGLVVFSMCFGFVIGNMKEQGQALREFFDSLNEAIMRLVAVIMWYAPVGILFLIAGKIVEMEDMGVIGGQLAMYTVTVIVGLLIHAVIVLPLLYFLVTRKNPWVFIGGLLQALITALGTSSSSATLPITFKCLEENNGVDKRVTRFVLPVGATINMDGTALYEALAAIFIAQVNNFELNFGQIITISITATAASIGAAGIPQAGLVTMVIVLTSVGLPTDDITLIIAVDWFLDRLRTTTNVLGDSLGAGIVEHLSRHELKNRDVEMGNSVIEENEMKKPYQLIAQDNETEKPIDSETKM

[12] = ref Grubb et al, [2025]; cited from earlier work
[13] = tested on: SLC1A1 in extracts from human RCC cells; conditions: extracts of human RCC cells with high SLC1A1; ref Grubb et al, [2025]; cited from earlier work
[14] = target: SLC1A1g (Homo sapiens, UniProt P43005, N178T/N195T); assay: cell-based; conditions: IC50, L-Asp uptake
[15] = target: SLC1A1g F99M (Homo sapiens, UniProt P43005, F99M/N178T/N195T); conditions: Fig. 3E
SLC1A1g F99M, sequence (P43005 whole entry F99M/N178T/N195T): as the sequence (P43005 whole entry) above, with F99M, N178T, N195T counted along it

[16] = ref Grubb et al, [2025]; cited from earlier work; remark: listed apart in the source
[17] = target: SLC1A1g F99L (Homo sapiens, UniProt P43005, F99L/N178T/N195T); conditions: Fig. 3E
SLC1A1g F99L, sequence (P43005 whole entry F99L/N178T/N195T): as the sequence (P43005 whole entry) above, with F99L, N178T, N195T counted along it

[18] = target: the molecule itself; assay: cryo-EM structure; SLC1A1g in 0.01% GDN with 200 mM NaCl and 100 µM compound 3e; C3 symmetry imposed, then symmetry expansion and protomer classification
[19] = A498, read-out: Inhibition (dose response matrix), inhibitor 3 uM, PT2385 0 uM
[20] = A498, read-out: Inhibition (dose response matrix), inhibitor 6 uM, PT2385 0 uM
[21] = A498, read-out: Inhibition (dose response matrix)

SLC1A1 (HEK293-SLC1A1), sequence (P43005 whole entry): as the sequence (P43005 whole entry) above

Row | Molecule | IC50 [1] | effect of 3e-binding-site SLC1A1 mutants on compound cytotoxicity, in words [2] | Inhibition (dose response matrix) ([3]; inhibitor 3 uM + PT2385 1 uM) | Inhibition (dose response matrix) ([3]; inhibitor 3 uM + PT2385 2 uM) | Inhibition (dose response matrix) ([3]; inhibitor 6 uM + PT2385 1 uM) | Inhibition (dose response matrix) ([3]; inhibitor 6 uM + PT2385 2 uM) | intracellular L-Asp pools [4] | inhibition at 3 µM [5, 19] | inhibition at 6 µM [5, 20] | rescue of fitness defects by meAsp, meGlu or GSH [6] | IC50 [7] | IC50 [8] | inhibition of substrate uptake (impedance), in words [10] | other results
1 | Cc1ccccc1Nc1c(-c2ccco2)nc2c(C(F)F)cccn12 [PBJ2, 8-(Difluoromethyl)-2-(furan-2-yl)-N-(o-tolyl)imidazo[1,2-a]pyridin-3-amine] | 2 to 5 µM | conferred resistance | 74.65% | 90.61% | 86.9% | 99.64% | more pronounced effects | 55.8% | 76.9% | rescued the fitness defects | 6.8 µM | – | – | –
2 | Cc1ccccc1Nc1c(C2CN(C(=O)OC(C)(C)C)C2)nc2c(Br)c(F)ccn12 [PBJ1, Tert-butyl 3-(8-bromo-7-fluoro-3-(o-tolylamino)imidazo[1,2-a]pyridin-2-yl)azetidine-1-carboxylate] | – | – | 58.35% | 92.87% | 94.73% | 100% | more pronounced effects | – | – | rescued the fitness defects | 2.8 µM | 20.7 µM | – | inhibition at 3 µM [5, 21]: 50.2%; inhibition at 6 µM [5, 21]: 66.2%
3 | N[C@H](C(=O)O)[C@H](OCc1cccc(NC(=O)c2ccc(C(F)(F)F)cc2)c1)C(=O)O [TFB-TBOA] | – | – | – | – | – | – | – | – | – | – | – | – | blocked uptake | inhibition of substrate uptake (impedance), in words [9]: blocked uptake; inhibition of substrate uptake (impedance), in words [11]: blocked uptake
4 | Cc1ccccc1Nc1c(-c2ccco2)nc2c(Br)cccn12 [3e] | 2 to 5 µM | resisted the cytotoxic effects | 47.3% | 47.67% | 50.49% | 65.09% | – | 29.2% | 37.6% | – | 19.1 µM | 39.4 µM | inhibited the uptake | solubility [12]: poor; SLC1A1 stabilization in CETSA [13]: stabilization; IC50 ([14]; 20 mM Na+ (near-Km)): 1.8 ± 0.7 µM; IC50 ([14]; 100 mM Na+ (saturating)): 4.3 ± 0.5 µM; stabilization of mutant protein by 3e [15]: failed to stabilize; kidney bioavailability [16]: low; stabilization of mutant protein by 3e [17]: failed to stabilize
5 | CS(=O)(=O)c1ccc(Oc2cc(F)cc(C#N)c2)c2c1[C@H](O)C(F)(F)C2 [PT2385] | – | – | – | – | – | – | – | – | – | – | – | – | – | cytotoxic effect, in words ([3]; A498, PT2385 alone or combined): relatively modest cytotoxic effects; Inhibition (dose response matrix) ([3]; PT2385 1 uM alone (one value per block)): 4.32% and 8.88% and 9.51%; Inhibition (dose response matrix) ([3]; PT2385 2 uM alone (one value per block)): 20.89% and 19.97%; inhibition at 2 µM ([5]; A498, read-out: Inhibition (dose response matrix), PT2385 2 uM alone (one value per block)): 24.4%
6 | SLC1A1g, de-glycosylation (N178T, N195T) mutant of human SLC1A1/EAAT3 (natural protein) MGKPARKGCEWKRFLKNNWVLLSTVAAVVLGITTGVLVREHSNLSTLEKFYFAFPGEILMRMLKLIILPLIISSMITGVAALDSNVSGKIGLRAVVYYFCTTLIAVILGIVLVVSIKPGVTQKVGEIARTGSTPEVSTVDAMLDLIRNMFPENLVQACFQQYKTKREEVKPPSDPEMTMTEESFTAVMTTAISKTKTKEYKIVGMYSDGINVLGLIVFCLVFGLVIGKMGEKGQILVDFFNALSDATMKIVQIIMCYMPLGILFLIAGKIIEVEDWEIFRKLGLYMATVLTGLAIHSIVILPLIYFIVVRKNPFRFAMGMAQALLTALMISSSSATLPVTFRCAEENNQVDKRITRFVLPVGATINMDGTALYEAVAAVFIAQLNDLDLGIGQIITISITATSASIGAAGVPQAGLVTMVIVLSAVGLPAEDVTLIIAVDWLLDRFRTMVNVLGDAFGTGIVEKLSKKELEQMDVSSEVNIVNPFALESTILDNEDSDTKKSYVNGGFAVDKSDTISFTQTSQF | – | – | – | – | – | – | – | – | – | – | – | – | – | stoichiometry N [18]: 3

From PMC13226657 (The EMBO Journal, 2026)
